Experimental data reported in PMC11881160 (International Journal of Nanomedicine, 2025).
Marks after values point to notes of the source that are not given here.

Assays:
[1] = PBPK model input; ATV value marked (acid); ref Drugbank; cited from earlier work
[2] = Pharmacokinetic study of LUT and LUT-NS-LP in rats; type: in vivo, Sprague-Dawley (SD) rats
[3] = system: CYP450s of Rat Liver Microsomes (RLMs); assay: In vitro CYP450 metabolism of ATV and inhibition by LUT in rat liver microsomes; conditions: CYP450s mixture of RLMs, Lineweaver-Burk plots
[4] = stated in the discussion without reference; species not given; cited from earlier work
[5] = In vitro dissolution test; type: physicochemical; conditions: 100 rpm, n=3
[6] = male, Sprague-Dawley, rat, plasma, po, 200 mg/kg

In the case of `O=c1cc(-c2ccc(O)c(O)c2)oc2cc(O)cc(O)c12` [LUT, Luteolin], the pKa [1] is given as 6.57^a, the AUC(0-inf) [2, 6] is given as 4230 ± 1510 ng·h/mL and the AUC(0-t) [2, 6] is given as 3840 ± 1390 ng·h/mL. It also gave a CL/F [2, 6] of 880 mL/min/kg, a Cmax [2, 6] of 1140 ± 320 ng/mL and an MRT inf [2, 6] of 4.02 ± 1.68 h. For the same compound, the MRT last [2, 6] was 2.88 ± 0.96 h, the Tmax [2, 6] was 0.92 ± 0.59 h and the Vd/F [2, 6] was 178 ± 85.1 L/kg. The half-life [2, 6] was 2.6 ± 1.52 h, the “F (bioavailability)” value ([2]; relative to LUT, rats, oral 200 mg/kg) was 1 fold and the “Form of inhibition of ATV metabolism by LUT” value [3] was “non-competitive”. The Oral absolute bioavailability [4] was “under 5%”, the Drug release ([5]; pH 1.2 buffer containing 0.05% Tween 80, after 120 min, 37°C) was 36.58 ± 0.99% and the Drug release ([5]; pH 6.8 phosphate buffer containing 0.05% Tween 80, 37°C) was 59.10 ± 3.13%.
